Assay: mn = molality of the nth substance listed, in mol/kg
Conditions: 101 kPa, Liquid; for speed of sound: Pulse-echo method

CCCC[P+](CCCC)(CCCC)CCCC.[Br-] [tetrabutylphosphonium bromide] + CCCCO
Conditions | mass density, 288.15 K [kg/m3] | mass density, 293.15 K [kg/m3] | mass density, 298.15 K [kg/m3] | mass density, 303.15 K [kg/m3] | mass density, 308.15 K [kg/m3] | mass density, 313.15 K [kg/m3] | mass density, 323.15 K [kg/m3] | speed of sound, 298.15 K [m/s]
m1 = 0.009722 | 813.972 | 810.179 | 806.37 | 802.533 | 798.665 | 794.76 | 786.817 | –
m1 = 0.01455 | 814.314 | 810.525 | 806.716 | 802.882 | 799.017 | 795.113 | 787.175 | –
m1 = 0.01936 | 814.655 | 810.867 | 807.061 | 803.227 | 799.366 | 795.464 | 787.531 | 1240.1
m1 = 0.0242 | 814.996 | 811.209 | 807.404 | 803.574 | 799.712 | 795.815 | 787.89 | –
m1 = 0.02918 | 815.348 | 811.563 | 807.767 | 803.93 | 800.07 | 796.175 | 788.253 | –
m1 = 0.0369 | 815.894 | 812.109 | 808.382 | 804.48 | 800.621 | 796.727 | 788.815 | 1241
m1 = 0.05364 | 817.07 | 813.293 | 809.495 | 805.673 | 801.825 | 797.943 | 790.046 | 1242
m1 = 0.07129 | 818.321 | 814.549 | 810.756 | 806.941 | 803.095 | 799.213 | 791.333 | 1243
m1 = 0.09251 | 819.818 | 816.049 | 812.265 | 808.455 | 804.62 | 800.743 | 792.887 | 1244.1
m1 = 0.1101 | 821.058 | 817.297 | 813.514 | 809.71 | 805.879 | 802.009 | 794.162 | 1245.1
m1 = 0.1395 | 823.126 | 819.37 | 815.598 | 811.804 | 807.981 | 804.127 | 796.295 | 1246.7
m1 = 0.1776 | 825.836 | 822.089 | 818.326 | 814.54 | 810.729 | 806.888 | 799.08 | 1248.8
m1 = 0.218 | 828.688 | 824.949 | 821.197 | 817.424 | 813.625 | 809.794 | 802.026 | 1251.1
m1 = 0.2537 | 831.238 | 827.51 | 823.765 | 820.001 | 816.21 | 812.388 | 804.641 | 1252.9
m1 = 0.2955 | 834.232 | 830.511 | 826.778 | 823.022 | 819.242 | 815.431 | 807.714 | 1255.3
m1 = 0.3323 | 836.873 | 833.16 | 829.434 | 825.687 | 821.922 | 818.127 | 810.433 | 1257.1

CCCC[P+](CCCC)(CCCC)CCCC.[Br-] [tetrabutylphosphonium bromide] + CC#N
Conditions | mass density, 288.15 K [kg/m3] | mass density, 293.15 K [kg/m3] | mass density, 298.15 K [kg/m3] | mass density, 303.15 K [kg/m3] | mass density, 308.15 K [kg/m3] | mass density, 313.15 K [kg/m3] | mass density, 323.15 K [kg/m3] | speed of sound, 298.15 K [m/s]
m1 = 0.007874 | 787.927 | 782.552 | 777.157 | 771.738 | 766.288 | 760.805 | 749.733 | –
m1 = 0.01066 | 788.155 | 782.783 | 777.389 | 771.974 | 766.524 | 761.045 | 749.978 | –
m1 = 0.01465 | 788.477 | 783.109 | 777.721 | 772.308 | 766.862 | 761.385 | 750.325 | –
m1 = 0.01965 | 788.885 | 783.521 | 778.136 | 772.724 | 767.283 | 761.811 | 750.761 | –
m1 = 0.02448 | 789.275 | 783.912 | 778.532 | 773.125 | 767.689 | 762.22 | 751.178 | –
m1 = 0.0297 | 789.7 | 784.34 | 778.965 | 773.559 | 768.128 | 762.662 | 751.631 | –
m1 = 0.03509 | 790.132 | 784.784 | 779.405 | 774.005 | 768.58 | 763.119 | 752.095 | –
m1 = 0.03974 | 790.506 | 785.156 | 779.78 | 774.389 | 768.965 | 763.508 | 752.488 | 1280.1
m1 = 0.04929 | 791.273 | 785.93 | 780.567 | 775.178 | 769.76 | 764.31 | 753.307 | 1280.5
m1 = 0.06938 | 792.879 | 787.551 | 782.208 | 776.834 | 771.429 | 765.995 | 755.023 | 1281.4
m1 = 0.08849 | 794.411 | 789.095 | 783.76 | 778.399 | 773.011 | 767.591 | 756.649 | 1282.2
m1 = 0.1056 | 795.783 | 790.48 | 785.156 | 779.812 | 774.43 | 769.023 | 758.107 | –
m1 = 0.1224 | 797.155 | 791.858 | 786.545 | 781.208 | 775.841 | 770.445 | 759.553 | –
m1 = 0.1338 | 798.088 | 792.8 | 787.494 | 782.156 | 776.78 | 771.4 | 760.532 | 1284.1
m1 = 0.1414 | 798.688 | 793.405 | 788.102 | 782.773 | 777.428 | 772.045 | 761.174 | –
m1 = 0.1504 | 799.412 | 794.136 | 788.839 | 783.514 | 778.17 | 772.795 | 761.945 | –
m1 = 0.1671 | 800.758 | 795.492 | 790.206 | 784.9 | 779.563 | 774.2 | 763.372 | 1285.6
m1 = 0.1811 | 801.879 | 796.621 | 791.346 | 786.047 | 780.72 | 775.365 | 764.561 | –
m1 = 0.1987 | 803.297 | 798.049 | 792.784 | 787.498 | 782.184 | 776.843 | 766.064 | 1287
m1 = 0.2296 | 805.781 | 800.553 | 795.309 | 790.042 | 784.751 | 779.433 | 768.697 | 1288.3
m1 = 0.2599 | 808.22 | 803.012 | 797.78 | 792.541 | 787.27 | 781.973 | 771.277 | 1289.5
m1 = 0.2925 | 810.865 | 805.677 | 800.473 | 795.247 | 789.997 | 784.72 | 774.075 | 1290.8
m1 = 0.3259 | 813.591 | 808.424 | 803.241 | 798.038 | 792.811 | 787.558 | 776.962 | 1292.2

CC(C)=O [acetone] + CCCC[P+](CCCC)(CCCC)CCCC.[Br-]
m2 = 0
Conditions | mass density [kg/m3]
288.15 K | 795.633
293.15 K | 789.952
298.15 K | 784.234
303.15 K | 778.47
308.15 K | 772.661
313.15 K | 766.799

CCCC[P+](CCCC)(CCCC)CCCC.[Br-] [tetrabutylphosphonium bromide] + CCCO
Conditions | mass density, 288.15 K [kg/m3] | mass density, 293.15 K [kg/m3] | mass density, 298.15 K [kg/m3] | mass density, 303.15 K [kg/m3] | mass density, 308.15 K [kg/m3] | mass density, 313.15 K [kg/m3] | mass density, 323.15 K [kg/m3] | speed of sound, 298.15 K [m/s]
m1 = 0.008229 | 808.063 | 804.08 | 800.075 | 796.04 | 791.98 | 787.867 | 779.506 | –
m1 = 0.01006 | 808.2 | 804.217 | 800.212 | 796.179 | 792.12 | 788.009 | 779.649 | 1205.6
m1 = 0.01526 | 808.58 | 804.599 | 800.599 | 796.569 | 792.51 | 788.405 | 780.051 | –
m1 = 0.02043 | 808.96 | 804.977 | 800.981 | 796.957 | 792.896 | 788.788 | 780.443 | –
m1 = 0.02524 | 809.318 | 805.33 | 801.34 | 797.315 | 793.259 | 789.158 | 780.808 | 1206.6
m1 = 0.03024 | 809.68 | 805.698 | 801.705 | 797.688 | 793.626 | 789.53 | 781.191 | –
m1 = 0.03749 | 810.212 | 806.23 | 802.24 | 798.225 | 794.174 | 790.075 | 781.741 | –
m1 = 0.05294 | 811.322 | 807.354 | 803.369 | 799.354 | 795.307 | 791.221 | 782.905 | 1208.6
m1 = 0.06813 | 812.403 | 808.443 | 804.463 | 800.458 | 796.411 | 792.34 | 784.043 | 1209.5
m1 = 0.0867 | 813.75 | 809.793 | 805.818 | 801.819 | 797.792 | 793.72 | 785.44 | 1210.8
m1 = 0.1076 | 815.247 | 811.298 | 807.331 | 803.338 | 799.313 | 795.248 | 786.995 | 1212.2
m1 = 0.1375 | 817.423 | 813.485 | 809.531 | 805.541 | 801.524 | 797.479 | 789.244 | 1213.9
m1 = 0.1743 | 820.087 | 816.159 | 812.214 | 808.243 | 804.242 | 800.208 | 792.006 | 1216.2
m1 = 0.2115 | 822.781 | 818.864 | 814.928 | 810.97 | 806.982 | 802.96 | 794.787 | 1218.4
m1 = 0.2447 | 825.209 | 821.3 | 817.377 | 813.431 | 809.45 | 805.445 | 797.302 | 1220.7
m1 = 0.2873 | 828.335 | 824.437 | 820.523 | 816.588 | 812.63 | 808.638 | 800.526 | 1223.5
m1 = 0.3248 | 831.089 | 827.205 | 823.305 | 819.382 | 815.432 | 811.451 | 803.369 | 1225.7

CCO [ethanol] + CCCC[P+](CCCC)(CCCC)CCCC.[Br-]
m2 = 0
Conditions | mass density [kg/m3]
288.15 K | 793.628
293.15 K | 789.354
298.15 K | 785.063
303.15 K | 780.745
308.15 K | 776.392
313.15 K | 772
323.15 K | 763.084

From the NIST ThermoML archive (doi:10.1021/je900888e)
